Reference: US6531453B1, “NKT cell activators containing α-glycosylceramides” (Kirin Beera Kabushiki Kaisha, priority 1997, dated 2003)

What was measured:
Vα14+ NKT cells = assay: Stimulation of spleen NKT cell proliferation in C57BL/6 mice (3-color FACS analysis); type: in vivo, mouse
Description: A vehicle (physiological saline solution containing 0.5% Polysolvate 20) or 1, 10 or 100 ng/kg of KRN 7000 was intravenously administered to C57BL/6 mice (Japan SLC, Inc.), and the spleen of individual mice was taken out after 24 hours to prepare spleen cells by conventional methods. These spleen cells were incubated in a plastic dish for 30 minutes to prepare nonadherent cells. By removing B cells in this nonadherent cells, a lymphocyte fraction was prepared. T cells, NK cells, NKT cells and Vα14^+ NKT cells in this fraction were analyzed by the 3-color FACS analysis using the FITC-labeled anti-TCR αβ monoclonal antibody (Pharmingen), cychrome-labeled anti-NK1.1 monoclonal antibody (Pharmingen) and PE-labeled anti-Vα14 monoclonal antibody (FIG. 2). The anti-Vα14 monoclonal antibody was obtained by implanting anti-Vα14 monoclonal antibody producing hybridomas (CMS-1; available from Masaru Taniguchi et al, School of Medicine, Chiba University) in nude mice and recovering ascites from the animals to purify the antibody. In FIGS. 2A and 2B, the numbers of NK1.1 cells, TCRαβ cells and […] in the lymphocyte fraction were expressed as fluorescence intensity of the labeled antibodies against these cells.

[1] = tested on: 4% DSS-induced mouse colitis (CDF1 mice); assay: Suppression of 4% DSS-induced mouse colitis; type: in vivo; settings: KRN 7000 100 μg/kg i.p. days 1, 5, 9, IL-12 1 μg/mouse i.p. days 1, 3, 5, 7, 9
Description: Ten animals per group of CDF1 mice (6 weeks of age, females) (Japan SLC Inc.) were used for the following experiment. Day 0 was defined as the day when a 4% DSS solution (4% (w/v) dextran sodium sulfate (DSS) dissolved in water) was first provided as drinking water. The animals were divided into 3 groups, i.e., a group to which 100 μg/kg of KRN 7000 were intraperitoneally administered on days 1, 5, and 9, a group to which 1 μg/mouse of IL-12 was intraperitoneally administered on days 1, 3, 5, 7 and 9, and an untreated (control) group. Body weight was measured and survival or death of the animals were observed daily. Changes in body weight and survival rate are shown in FIG. 5A and 5B, respectively.

[2] = tested on: spleen cells of RAG-1KO/Vα14tg/Vβ8.2tg mice (NKT cells); assay: Stimulation of NKT cell proliferation, [3H]thymidine incorporation in spleen cells; type: cell-based, mouse; settings: 2 days incubation
Description: Stimulation of NKT cell proliferation by compounds having an α-glycosylceramide structure was studied using spleen cells of RAG-1KO/Vα14tg/Vβ8.2tg mice shown in Pharmacological Test Example 1.
Spleen cells were prepared from the spleen of RAG-1KO/Vα14tg/Vβ8.2tg mice by conventional methods. These spleen cells were suspended at 2×10^6 cells/ml in an RPMI 1640 medium supplemented with 10% FCS, and 100 μl each of the suspension were plated into wells of 96-well round-bottomed plates. Ten different kinds of compounds having an α-glycosylceramide structure shown in FIG. 12 were added to the wells of the plates at a final concentration of 1, 10 or 100 ng/ml, and the plates were incubated for 2 days. Sixteen hours after the addition of [^3H] thymidine (0.5 μCi/well), the cells were harvested. The amount of [^3H] thymidine incorporated into the cells was measured by a liquid scintillation counter.

[3] = tested on: C57BL/6 mice with MOG-induced EAE; assay: Suppression of the onset of experimental autoimmune encephalomyelitis (EAE); type: in vivo, mouse; settings: 20 μg/kg i.p. on days 1, 5, 8, 12 and 15, FIG. 6B
Description: […]. Mice were immunized by subcutaneously injecting this emulsion on day 0 and day 7. Further, 500 ng of pertussis toxin were intraperitoneally administered on day 1 and […] induce experimental autoimmune encephalomyelitis (EAE) in mice. The animals were divided into 2 groups, i.e., a group to which 20 μg/kg of KRN 7000 were intraperitoneally administered on days 1, 5, 8, 12 and 15 and a group to which a vehicle (0.5%, Polysolvate 20) was administered in a similar manner. The level of EAE symptoms was observed every day.

Vα24+ NKT cells = assay: Stimulation of Vα24+ NKT cell proliferation, autologous mixed leukocyte reaction with treated antigen-presenting cells; type: cell-based, human; settings: antigen-presenting cells treated with 100 ng/ml, FIG. 9
Description: Peripheral blood mononuclear cells of a normal human were cultured for 4 days in an AIM medium supplemented with 10% FCS with the addition of GM-CSF (400 U/ml), IL-4 (200 U/ml) and KRN 7000 (100 ng/ml) to prepare antigen-presenting cells.
An autologous mixed leukocyte reaction (MLR) was performed using these antigen-presenting cells as stimulator cells and autologous peripheral blood mononuclear cells as responder cells. After incubation for 10 days, IL-2 (5 U/ml) was added, incubation was continued for another 4 days, and the cells were harvested. Next, CD4, CD8 double negative cells were recovered from these harvested cells and subjected to the phenotype analysis. The phenotypic analysis was expressed by fluorescence intensity of labeled antibodies against cells having various phenotypes.
The cells were cultured using IL-2 (5 U/ml) to stimulate the proliferation of Vα24^+ NKT cells, which were used as responder cells in the following autologous mixed leukocyte reaction. Autologous peripheral blood mononuclear cells were cultured for 4 days with the addition of GM-CSF +IL-4 and 100 ng/ml of KRN 7000, AGL-583 (β-galactosylceramide, β-GalCer) or 0.1% DMSO (vehicle) to prepare antigen-presenting cells. An autologous mixed leukocyte reaction was carried out using these antigen-presenting cells as stimulator cells. […]

[4] = tested on: Vα14+ NKT-deficient (Jα281KO) mice; assay: Induction of abortion in Vα14+ NKT-deficient (Jα281KO) mice; type: in vivo, mouse; settings: same amount, same manner, PBS group 5.0%
Description: C57BL/6 mice (Japan SLC) were used for the following experiment. The day when a vaginal plug was observed was defined as day 0. Pregnant mice were divided into 2 groups (6 mice per group), i.e., one group to which 150 μg/kg of KRN 7000 were intravenously administered on days 7, 8 and 9, and another to which PBS (phosphate-buffered saline) was administered in the same way. On day 12, the uterus was removed to observe the state of the embryo.
When the same amount of KRN 7000 was administered to Vα14^+ NKT-deficient (Jα281KO) mice (Kawano, T. et al., Science, 278, 1626-1629 (1997)) in the same manner, the abortion rate was 5.3%, which was equivalent to that for the PBS-administered group (5.0%). The Vα14^+ NKT-deficient mice are available from Masaru Taniguchi, School of Medicine, Chiba University.

[5] = spleen, i.v., 24 hours, FIG. 2C

## CCCCCCCCCCCCCCCCCCCCCCCCCC(=O)N[C@@H](CO[C@H]1O[C@H](CO)[C@H](O)[C@H](O)[C@H]1O)[C@H](O)[C@H](O)CCCCCCCCCCCCCC [KRN 7000, (2S,3S,4R)-1-(α-D-galactopyranosyloxy)-2-hexacosanoylamino-3,4-octadecanediol]
Vα14+ NKT cells; 100 ng/kg i.v., 24 hours, FIG. 2A
  rate of NK1.1+ TCRαβ cells in the spleen lymphocyte fraction vs vehicle: marked increase
Vα14+ NKT cells; 100 ng/kg i.v., 24 hours, FIG. 2B
  rate of Vβ14+ cells in NK1.1+ TCRβα+ cells vs vehicle: increase
Vα14+ NKT cells; 10 or 100 ng/kg i.v., 24 hours, FIG. 2C
  numbers of NK cells in the spleen lymphocyte fractions: equal to those from the vehicle-administered mice
Vα14+ NKT cells; i.v., 24 hours, FIG. 2C
  increase in numbers of Vα14+ NKT cells in the spleen lymphocyte fraction vs vehicle: more than four times
Vα14+ NKT cells; i.v., 24 hours, data not shown
  increase in numbers of Vα14− NKT cells in the spleen lymphocyte fraction vs vehicle: more than three times
Vα14+ NKT cells; liver, data not shown
  numbers of Vα14+ cells in the liver: marked increase
  numbers of Vα14− NKT cells in the liver: marked increase
Vα14+ NKT cells; [5]
  increase in the numbers of T cells vs vehicle-administered mice: about 2 fold
  increase in the numbers of lymphocyte fractions vs vehicle-administered mice: about 2 fold
[1]; FIG. 5A
  time of weight loss as compared with the control group: at a later period
[1]; FIG. 5B
  survival period as compared with the control group: significantly longer
[2]; 1 ng/ml, vehicle 2090
  [3H] Thymidine incorporation (cpm): 40064 cpm
[2]; 10 ng/ml, vehicle 2056
  [3H] Thymidine incorporation (cpm): 74669 cpm
[2]; 100 ng/ml, vehicle 2014
  [3H] Thymidine incorporation (cpm): 102543 cpm
[3]; 10 mice, vehicle: 80% died
  mice that died of EAE: 2
[3]; vehicle: all mice
  mice showing the EAE onset: 4 out of 10
Vα24+ NKT cells
  effect of treated antigen presenting cells on Vα24+ NKT cell proliferation ([3H]thymidine uptake): marked stimulative effect
[4]
  abortion rate: 5.3%
